Experiments:
Solubility = type: physicochemical
β-glucosidase = assay: Inhibitory activity against β-glucosidase (p-nitrophenyl-β-D-glucopyranoside hydrolysis, absorbance at 405 nm); type: biochemical; conditions: pH 5.6, 37° C., 15 min preincubation, 20 min reaction; enzyme from almonds
Description: Inhibitory activity of 5-amino-1-(hydroxymethyl)cyclopentane-1,2,3,4-tetraol against β-glucosidase
Samples of β-glucosidase (separated from almonds), p-nitrophenyl-β-D-glucopyranoside, deoxynojirimycin and castanospermine used in this experiment were all purchased from Sigma Chemicals Co.
The test compounds used were 5-amino-1-(hydroxymethyl)cyclopentane-1,2,3,4-tetraol [compound (I)], and deoxynojirimycin or castanospermine, both of which are known compounds having this type of activity.
A mixture of 0.01 unit/ml of β-glucosidase and 100 μl of a buffer solution (pH 5.6) comprising 20 mM of citric acid, 40 mM of disodium phosphate and the compound under test was allowed to stand at 37° C. for 15 minutes. At the end of this time, 50 μl of a buffer solution containing 3 mg/ml of p-nitrophenyl-β-D-glucopyranoside were added to the mixture, which was then allowed to react at 37° C. for 20 minutes. 20 μl of a 1M glycine/sodium hydroxide buffer solution (pH 10.4) were added to the reaction mixture, and the quantity of p-nitrophenol liberated was monitored by absorbance at 405 nm. Table 7 lists the concentrations β-glucosidase by 50% (IC50).

silkworm trehalase = target: T1, silkworm trehalase (Bombyx mori, UniProt P32358); assay: Inhibitory activity against silkworm trehalase (crude enzyme from silkworm larvae, glucose determination); type: biochemical; conditions: pH 5.6, 37° C., 15 min preincubation, 15 min reaction; substrate trehalose; read-out: concentration needed to inhibit the enzyme activity by 50% (IC50), silkworm trehalase (converted)
T1 construct: Ten silkworm larvae of the fifth instar (total weight 44 g) were homogenized; from tissue; host or cells: whole silkworm larvae, fifth instar; acetone precipitate of homogenate supernatant
T1 sequence (P32358 16-579): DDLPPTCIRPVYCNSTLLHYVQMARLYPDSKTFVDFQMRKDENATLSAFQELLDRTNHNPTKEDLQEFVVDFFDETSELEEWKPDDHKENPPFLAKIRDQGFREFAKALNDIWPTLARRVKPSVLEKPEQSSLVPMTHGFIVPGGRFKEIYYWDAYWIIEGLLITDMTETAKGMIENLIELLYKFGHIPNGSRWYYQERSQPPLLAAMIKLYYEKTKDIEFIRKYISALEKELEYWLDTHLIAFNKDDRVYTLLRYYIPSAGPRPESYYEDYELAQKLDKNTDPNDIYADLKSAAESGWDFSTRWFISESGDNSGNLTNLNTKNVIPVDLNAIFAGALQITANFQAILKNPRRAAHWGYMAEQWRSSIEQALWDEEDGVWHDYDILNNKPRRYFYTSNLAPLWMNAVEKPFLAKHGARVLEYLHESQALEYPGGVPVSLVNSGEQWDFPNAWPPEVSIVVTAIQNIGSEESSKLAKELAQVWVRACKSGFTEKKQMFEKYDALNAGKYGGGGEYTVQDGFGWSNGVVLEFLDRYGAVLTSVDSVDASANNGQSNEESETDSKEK
Description: Inhibitory activity of trehazolin against silkworm trehalase
Ten silkworm larvae of the fifth instar (total weight 44 g) were homogenized using a Polytrone (trade mark) homogenizer in 120 ml of a buffer solution (pH 5.6) prepared using 20 mM of citric acid and 40 mM of disodium phosphate for 2 minutes, whilst ice-cooling (the same buffer solution was also used hereafter). The homogenized mixture was then centrifuged at a speed of 6,000 rpm for 10 minutes, and the supernatant was separated. 240 ml of acetone were added to 120 ml of the supernatant, whist ice-cooling and stirring, and the resulting mixture was centrifuged at a speed of 9,000 rpm for 20 minutes. The sediment was separated and dissolved in water, and the resulting solution was lyophilized, to give 2.0 g of the crude enzyme.
130 μl of the above buffer solution, 50 μl of a sample solution containing trehazolin at various concentrations and 50 μl of a silkworm enzyme solution prepared as described above and containing 4 mg/ml of the enzyme were placed in a test-tube, and the mixture was shaken on a water bath kept at 37° C. for 15 minutes. […]
The reaction was conducted using glucose C-test Wako (a product of Wako Pure Chemical Industries Ltd.) and 10-fold quantities of the sample solution over that of the standard procedure.

rat sucrase = target: T2, rat sucrase (Rattus norvegicus, UniProt P23739); assay: Inhibitory activity against rat sucrase (brush border membrane enzyme of rat small intestine, glucose liberated at 492 nm); type: biochemical, rat (Wistar strain); conditions: pH 6.2, 37°, 20 minutes; substrate sucrose; read-out: concentration required to inhibit the activity of rat sucrase by 50% (IC50) (converted)
T2 construct: a brush border membrane enzyme solution of a rat small intestine was prepared from the small intestines; from tissue; host or cells: small intestine brush border membrane, male Wistar rats
T2 sequence (P23739 1014-1841 limits assumed): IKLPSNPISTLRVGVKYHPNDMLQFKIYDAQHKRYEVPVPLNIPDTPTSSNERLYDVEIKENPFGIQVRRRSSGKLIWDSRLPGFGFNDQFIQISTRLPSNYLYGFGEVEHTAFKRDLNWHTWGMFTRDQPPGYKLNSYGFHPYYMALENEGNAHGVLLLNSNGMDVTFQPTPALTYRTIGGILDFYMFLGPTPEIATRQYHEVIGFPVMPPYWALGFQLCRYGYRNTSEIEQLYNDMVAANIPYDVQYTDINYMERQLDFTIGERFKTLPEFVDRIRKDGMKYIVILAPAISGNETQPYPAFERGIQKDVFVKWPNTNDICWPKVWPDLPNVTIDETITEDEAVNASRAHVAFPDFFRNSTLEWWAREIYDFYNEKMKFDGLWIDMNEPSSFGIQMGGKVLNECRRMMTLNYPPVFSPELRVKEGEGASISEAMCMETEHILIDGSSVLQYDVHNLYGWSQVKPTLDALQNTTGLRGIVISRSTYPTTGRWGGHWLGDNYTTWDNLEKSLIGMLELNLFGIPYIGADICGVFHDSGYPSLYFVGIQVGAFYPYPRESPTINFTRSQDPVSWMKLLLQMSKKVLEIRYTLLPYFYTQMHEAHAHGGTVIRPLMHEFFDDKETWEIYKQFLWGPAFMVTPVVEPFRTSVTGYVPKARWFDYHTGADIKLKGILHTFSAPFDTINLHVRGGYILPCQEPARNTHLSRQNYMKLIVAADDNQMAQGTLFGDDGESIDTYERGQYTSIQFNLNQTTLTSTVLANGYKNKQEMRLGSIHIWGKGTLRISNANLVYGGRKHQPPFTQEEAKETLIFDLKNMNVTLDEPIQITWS
T2 sequence (P23739 1-1013 partner limits assumed): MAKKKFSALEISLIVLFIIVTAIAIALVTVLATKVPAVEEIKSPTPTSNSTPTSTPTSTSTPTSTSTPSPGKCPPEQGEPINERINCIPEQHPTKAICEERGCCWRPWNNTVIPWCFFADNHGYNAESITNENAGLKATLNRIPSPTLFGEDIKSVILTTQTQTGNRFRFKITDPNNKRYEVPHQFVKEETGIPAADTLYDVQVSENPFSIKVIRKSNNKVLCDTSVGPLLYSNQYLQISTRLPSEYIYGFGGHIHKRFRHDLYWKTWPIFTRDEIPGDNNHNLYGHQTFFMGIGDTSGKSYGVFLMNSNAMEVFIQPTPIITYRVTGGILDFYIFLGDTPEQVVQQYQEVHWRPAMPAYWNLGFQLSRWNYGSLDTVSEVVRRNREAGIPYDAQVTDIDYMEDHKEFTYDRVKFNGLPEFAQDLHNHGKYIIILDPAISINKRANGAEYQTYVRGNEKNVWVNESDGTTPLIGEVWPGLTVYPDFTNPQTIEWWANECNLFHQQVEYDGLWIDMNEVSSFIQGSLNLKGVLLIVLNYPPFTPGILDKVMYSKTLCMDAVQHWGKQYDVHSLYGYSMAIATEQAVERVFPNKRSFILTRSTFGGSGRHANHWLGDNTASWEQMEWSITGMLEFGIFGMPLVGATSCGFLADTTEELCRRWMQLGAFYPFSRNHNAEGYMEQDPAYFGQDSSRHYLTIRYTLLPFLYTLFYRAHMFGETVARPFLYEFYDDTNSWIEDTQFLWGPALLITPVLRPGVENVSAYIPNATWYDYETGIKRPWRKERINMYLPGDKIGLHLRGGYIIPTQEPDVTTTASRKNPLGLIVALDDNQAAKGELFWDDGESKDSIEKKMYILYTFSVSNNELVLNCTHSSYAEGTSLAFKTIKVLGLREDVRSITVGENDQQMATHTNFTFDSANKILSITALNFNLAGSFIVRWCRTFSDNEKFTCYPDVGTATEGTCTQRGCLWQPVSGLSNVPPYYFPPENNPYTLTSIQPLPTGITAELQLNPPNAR
Description: Inhibitory activity of 2-amino-4-(hydroxymethyl)-3a-5,6,6a-tetrahydro-4H-cyclopent[d]oxazole-4,5,6-triol [compound (II)] against rat sucrase
According to the method of M. Kessler et al. Biochimica et Biophysica Acta, 506, 136-154(1978)], a brush border membrane enzyme solution of a rat small intestine was prepared from the small intestines of three male rats of the Wistar strain and suspended in 3 ml of physiological saline.
A sample of 4-aminoantipyrine (A 4382) was purchased from Sigma Chemical Co., and samples of peroxidase (Grade I) and glucose oxidase (Grade I) were purchased from Boehringer Mannheim Co. A buffer solution (pH 6.2) comprising 20 mM of citric acid and 40 mM of disodium phosphate was used as the diluent in the following experiment.
Each well of a micro-titer plate with 96 wells (a product of Falcon Co.) was filled with 130 μl in all of a mixture which contained 0.2 mg of bovine serum albumin (Sigma, A 7906), 3 units of glucose oxidase, 0.132 unit of peroxidase, 20 μg of 4-aminoantipyrine, 40 μg of phenol, 3 μ mole of sucrose and a test compound. To the well were added 20 μl of 100-fold diluted solution of a brush border membrane enzyme solution of rat small intestine. The mixture was allowed to react at 37° for 20 minutes and the quantity of glucose liberated was monitored by absorbance at 492 nm. […]

Row | Structure (SMILES) | Solubility in acetone (Solubility) | Solubility in chloroform (Solubility) | Solubility in water (Solubility) | 50% inhibitory concentration of β-glucosidase (IC50) (β-glucosidase) [µg/mL] | Solubility in methanol (Solubility; methanol) | IC50 (silkworm trehalase) [µM] | IC50 (rat sucrase) [µM]
1 | NC1C(O)C(O)C(O)C1(O)CO (stereo not drawn) [Compound (I), 5-amino-1-(hydroxymethyl)cyclopentane-1,2,3,4-tetraol] | insoluble | insoluble | soluble | 1.0 |  |  | 
2 | OC[C@H]1NC[C@H](O)[C@@H](O)[C@@H]1O [Deoxynojirimycin, deoxynojirimycin] |  |  |  | 15 |  |  | 
3 | OCC1OC(NC2=NC3C(O2)C(O)C(O)C3(O)CO)C(O)C(O)C1O (stereo not drawn) [trehazolin, reference compound] | insoluble | insoluble | soluble |  | soluble | 0.00546 | 
4 | O[C@H]1[C@H](O)[C@@H](O)CN2CC[C@H](O)[C@H]12 [Castanospermine, castanospermine] |  |  |  | 4.3 |  |  | 
5 | NC1=NC2C(O1)C(O)C(O)C2(O)CO (stereo not drawn) [(II), 2-amino-4-(hydroxymethyl)-3a,5,6,6a-tetrahydro-4H-cyclopent[d]oxazole-4,5,6-triol] | insoluble | insoluble | soluble |  |  |  | 88.2
